From patent US20250313535A1, “ALPHA 4 BETA 7 INTEGRIN MODULATORS AND USES THEREOF” (DICE MOLECULES SV, INC., priority 2022, published 2025)

Experiments:
α4β7 integrin = α4β7 integrin (Homo sapiens (Human), UniProt P13612+P26010); test: Integrin Adhesion Assay: Protocol 1 (MAdCAM-coated plate, RPMI-8866 cells, CellTiter GLO readout); format: cell-based; conditions: integrin adhesion assay; determined by at least one of the assays described (protocol not specified)
Outline: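 RPMI-8866 cells (2×10^6 per mL) added with compounds (1% DMSO) to MAdCAM-coated wells blocked in HEPES/NaCl buffer with 1 mM MnCl2, 0.1 mM CaCl2, 1% BSA; 1 h at 37° C, 5% CO2. After four washes, bound cells read by CellTiter GLO luminescence; % inhibition vs DMSO and control wells, 4-parameter fit.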

α4β1 integrin = α4β1 integrin (Homo sapiens (Human), UniProt P05556+P13612); test: Integrin Adhesion Assay: Protocol 2 (VCAM-coated plate, Jurkat cells, CellTiter GLO readout); format: cell-based; conditions: determined by at least one of the assays described (protocol not specified)
Chain of α4β1 integrin (P13612 34-1032): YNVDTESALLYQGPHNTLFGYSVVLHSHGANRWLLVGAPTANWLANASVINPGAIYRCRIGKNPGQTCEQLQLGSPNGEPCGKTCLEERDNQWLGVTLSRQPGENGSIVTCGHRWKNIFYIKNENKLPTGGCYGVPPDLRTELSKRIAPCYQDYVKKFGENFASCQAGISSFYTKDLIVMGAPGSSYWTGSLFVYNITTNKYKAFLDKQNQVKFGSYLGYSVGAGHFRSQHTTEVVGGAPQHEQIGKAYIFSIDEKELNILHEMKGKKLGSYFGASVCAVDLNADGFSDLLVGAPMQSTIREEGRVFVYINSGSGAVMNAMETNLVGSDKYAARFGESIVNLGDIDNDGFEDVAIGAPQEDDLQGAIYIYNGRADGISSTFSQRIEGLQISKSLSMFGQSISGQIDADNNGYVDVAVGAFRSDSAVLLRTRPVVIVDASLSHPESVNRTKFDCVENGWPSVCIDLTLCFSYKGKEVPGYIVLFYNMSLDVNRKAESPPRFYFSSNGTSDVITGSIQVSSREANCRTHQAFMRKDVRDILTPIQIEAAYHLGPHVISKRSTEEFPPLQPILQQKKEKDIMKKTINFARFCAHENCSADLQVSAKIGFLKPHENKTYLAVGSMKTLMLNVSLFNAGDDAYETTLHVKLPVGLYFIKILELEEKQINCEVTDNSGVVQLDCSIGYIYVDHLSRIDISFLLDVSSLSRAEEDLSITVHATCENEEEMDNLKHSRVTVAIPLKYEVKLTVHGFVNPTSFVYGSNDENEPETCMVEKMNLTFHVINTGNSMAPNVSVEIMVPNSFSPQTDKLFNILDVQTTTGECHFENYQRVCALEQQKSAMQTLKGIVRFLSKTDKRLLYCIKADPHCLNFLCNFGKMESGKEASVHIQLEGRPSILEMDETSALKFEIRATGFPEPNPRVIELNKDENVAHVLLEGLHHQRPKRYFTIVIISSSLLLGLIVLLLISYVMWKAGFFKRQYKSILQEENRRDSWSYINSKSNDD
Chain of α4β1 integrin (P05556 21-798): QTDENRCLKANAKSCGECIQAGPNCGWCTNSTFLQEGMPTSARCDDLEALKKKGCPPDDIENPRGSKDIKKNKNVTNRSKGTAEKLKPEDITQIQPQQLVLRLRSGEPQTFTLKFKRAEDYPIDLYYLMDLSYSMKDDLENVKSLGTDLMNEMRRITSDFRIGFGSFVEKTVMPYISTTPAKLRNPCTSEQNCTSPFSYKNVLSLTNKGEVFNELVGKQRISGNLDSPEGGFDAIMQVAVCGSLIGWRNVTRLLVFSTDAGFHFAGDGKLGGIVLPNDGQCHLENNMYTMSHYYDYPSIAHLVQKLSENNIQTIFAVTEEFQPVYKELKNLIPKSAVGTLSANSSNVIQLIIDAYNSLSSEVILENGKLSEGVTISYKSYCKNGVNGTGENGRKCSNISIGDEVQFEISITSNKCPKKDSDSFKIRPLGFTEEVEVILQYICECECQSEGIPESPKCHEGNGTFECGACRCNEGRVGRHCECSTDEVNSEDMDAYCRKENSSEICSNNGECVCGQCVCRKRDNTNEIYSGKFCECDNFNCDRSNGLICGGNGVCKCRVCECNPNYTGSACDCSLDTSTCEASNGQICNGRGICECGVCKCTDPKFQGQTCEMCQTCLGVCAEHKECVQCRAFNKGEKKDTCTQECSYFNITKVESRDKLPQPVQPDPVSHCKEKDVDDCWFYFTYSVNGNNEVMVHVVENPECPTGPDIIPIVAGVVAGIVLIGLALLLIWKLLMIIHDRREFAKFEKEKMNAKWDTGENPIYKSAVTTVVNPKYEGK
Outline: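 Jurkat cells (2×10^6 per mL) adhered to VCAM-coated (0.1 ug/well), BSA-blocked wells with compound (1% DMSO) for 1 h at 37° C in 10 mM HEPES, 150 mM NaCl, 1 mM MnCl2, 0.1 mM CaCl2. After four washes, bound cells were quantified by CellTiter-Glo luminescence. Percent inhibition versus DMSO and control-compound wells was fitted to a 4-parameter curve.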

patients = conditions: clinical trials; at the end of one year of treatment; cited from earlier work

Chain of α4β7 integrin (P13612 34-1032): as the sequence (P13612 34-1032) above
Chain of α4β7 integrin (P26010 20-798): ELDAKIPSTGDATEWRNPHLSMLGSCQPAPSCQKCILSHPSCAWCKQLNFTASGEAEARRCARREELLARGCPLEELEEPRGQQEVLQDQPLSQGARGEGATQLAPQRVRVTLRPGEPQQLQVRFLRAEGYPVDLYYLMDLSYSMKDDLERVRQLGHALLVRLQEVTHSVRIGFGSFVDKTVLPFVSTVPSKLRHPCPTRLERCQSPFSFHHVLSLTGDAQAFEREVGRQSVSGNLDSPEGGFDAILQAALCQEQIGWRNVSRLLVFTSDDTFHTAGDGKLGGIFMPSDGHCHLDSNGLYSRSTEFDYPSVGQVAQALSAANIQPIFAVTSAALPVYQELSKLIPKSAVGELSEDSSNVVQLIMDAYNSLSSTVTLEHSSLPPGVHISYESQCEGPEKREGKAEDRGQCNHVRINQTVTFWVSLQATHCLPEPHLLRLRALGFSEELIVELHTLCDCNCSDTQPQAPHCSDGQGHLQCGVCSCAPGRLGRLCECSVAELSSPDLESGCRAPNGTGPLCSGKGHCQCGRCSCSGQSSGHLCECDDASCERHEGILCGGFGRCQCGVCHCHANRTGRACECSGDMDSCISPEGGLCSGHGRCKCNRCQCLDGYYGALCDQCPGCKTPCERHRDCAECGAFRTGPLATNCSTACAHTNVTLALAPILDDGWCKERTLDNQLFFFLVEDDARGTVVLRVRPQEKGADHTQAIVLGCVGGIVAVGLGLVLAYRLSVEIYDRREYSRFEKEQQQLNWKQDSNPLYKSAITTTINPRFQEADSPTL

Row | Compound | IC50 (α4β7 integrin) | IC50 (α4β1 integrin) | patients receiving ENTYVIO achieved remission (patients)
1 | C[C@H]1COCCN1c1cc(F)c(C(=O)N[C@@H](Cc2cccc3c(-c4c(C(F)(F)F)ccn(C)c4=O)nccc23)C(=O)O)c(F)c1 [Compound 216] | 10 to 100 nM | > 1000 nM | 
2 | Cn1ccc(C(F)(F)F)c(-c2nccc3c(C[C@H](NC(=O)c4c(F)cc(N5CCOC[C@H]5C(F)(F)F)cc4F)C(=O)O)cccc23)c1=O [Compound 218] | 10 to 100 nM | > 1000 nM | 
3 | O=C(N[C@@H](Cc1cccc2c(-c3cccc4ccncc34)nccc12)C(=O)O)c1c(F)cc(N2CCOC[C@@H]2C(F)(F)F)cc1F [Compound 220] | 10 to 100 nM | > 1000 nM | 
4 | O=C(N[C@@H](Cc1cccc2c(-c3cccc4ccncc34)nccc12)C(=O)O)c1c(F)cc(CN2CCOCC2)cc1F [Compound 223] | > 1000 nM | > 1000 nM | 
5 | Cn1ccc(C(F)(F)F)c(-c2nccc3c(C[C@H](NC(=O)c4c(Cl)cc(N5CCOC[C@@H]5C(F)(F)F)cc4CN4CCC(F)(F)CC4)C(=O)O)cccc23)c1=O [Compound 224] | 10 to 100 nM | > 1000 nM | 
6 | Cn1ccc(C(F)(F)F)c(-c2nccc3c(C[C@H](NC(=O)c4c(CN5CCOCC5)cc(N5CCOC[C@@H]5C(F)(F)F)cc4C(F)(F)F)C(=O)O)cccc23)c1=O [Compound 227] | > 1000 nM | > 1000 nM | 
7 | Cn1ccc(C(F)(F)F)c(-c2nccc3c(C[C@H](NC(=O)c4cc(F)cc(CSc5ccccc5)c4)C(=O)O)cccc23)c1=O [Compound 229] | > 1000 nM | > 1000 nM | 
8 | Cn1ccc(C(F)(F)F)c(-c2nccc3c(C[C@H](NC(=O)c4c(F)cc(CN5CCOCC5)cc4F)C(=O)O)cccc23)c1=O [Compound 246] | 100 to 1000 nM | > 1000 nM | 
9 | CN1CCN(c2cc(F)c(C(=O)N[C@@H](Cc3cccc4c(-c5c(C(F)(F)F)ccn(C)c5=O)nccc34)C(=O)O)c(F)c2)[C@@H](C(F)(F)F)C1 [Compound 249] | 10 to 100 nM | > 1000 nM | 
10 | Cn1ccc(C(F)(F)F)c(-c2nccc3c(C[C@H](NC(=O)c4c(F)cc(N5CCOC[C@@H]5C(F)(F)F)cc4CN4CCCC4)C(=O)O)cccc23)c1=O [Compound 253] | < 10 nM | > 1000 nM | 
11 | Cn1ccc(C(F)(F)F)c(-c2nccc3c(C[C@H](NC(=O)c4c(F)cc(NCC(F)(F)F)cc4CN4CCCC4)C(=O)O)cccc23)c1=O [Compound 254] | < 10 nM | > 1000 nM | 
12 | O=C(N[C@@H](Cc1cccc2c(-c3cccc4ccncc34)nccc12)C(=O)O)c1c(F)cc(N2CCOC[C@@H]2C(F)(F)F)cc1CN1CCCC1 [Compound 255] | < 10 nM | 100 to 1000 nM | 
13 | O=C(N[C@@H](Cc1cccc2c(-c3cccc4ccncc34)nccc12)C(=O)O)c1c(F)cc(NCC(F)(F)F)cc1CN1CCCC1 [Compound 256] | 10 to 100 nM | > 1000 nM | 
14 | Cn1ccc(C(F)(F)F)c(-c2nccc3c(C[C@H](NC(=O)c4c(F)cc(N5CCOC[C@H]5C5CC5)cc4F)C(=O)O)cccc23)c1=O [Compound 257] | 10 to 100 nM | > 1000 nM | 
15 | Cn1ccc(C(F)(F)F)c(-c2nccc3c(C[C@H](NC(=O)c4c(F)cccc4C(F)(F)F)C(=O)O)cccc23)c1=O [Compound 258] | 100 to 1000 nM | > 1000 nM | 
16 | CCOCc1cc(OC)c(-c2nccc3c(C[C@H](NC(=O)c4c(F)cc(N5CCOC[C@@H]5C(F)(F)F)cc4F)C(=O)O)cccc23)c(OC)c1 [Compound 259] | < 10 nM | 100 to 1000 nM | 
17 | CCOCc1cc(OC)c(-c2nccc3c(C[C@H](NC(=O)c4c(F)cccc4F)C(=O)O)cccc23)c(OC)c1 [Compound 260] | 10 to 100 nM | 100 to 1000 nM | 
18 | vedolizumab [ENTYVIO] |  |  | approximately 30%

Continued, in another order:

Row | IC50 (α4β7 integrin) | IC50 (α4β1 integrin) | Compound | patients receiving ENTYVIO achieved remission (patients)
19 | < 10 nM | > 1000 nM | Cn1ccc(C(F)(F)F)c(-c2nccc3c(C[C@H](NC(=O)c4c(F)cc(N5CCOC[C@@H]5C(F)(F)F)cc4F)C(=O)O)cccc23)c1=O [Compound 214] | 
20 | < 10 nM | > 1000 nM | Cc1cc(N2CCOC[C@@H]2C(F)(F)F)cc(F)c1C(=O)N[C@@H](Cc1cccc2c(-c3c(C(F)(F)F)ccn(C)c3=O)nccc12)C(=O)O [Compound 215] | 
21 | < 10 nM | > 1000 nM | Cn1ccc(C(F)(F)F)c(-c2nccc3c(C[C@H](NC(=O)c4c(F)cc(N5CCOCC56CC6)cc4F)C(=O)O)cccc23)c1=O [Compound 217] | 
22 | < 10 nM | > 1000 nM | O=C(N[C@@H](Cc1cccc2c(-c3cccc4ccncc34)nccc12)C(=O)O)c1c(F)cc(N(CC(F)(F)F)CC(F)(F)F)cc1CN1CCCC1 [Compound 222] | 
23 | < 10 nM | > 1000 nM | Cn1ccc(C(F)(F)F)c(-c2nccc3c(C[C@H](NC(=O)c4c(Cl)cc(N5CCOC[C@@H]5C(F)(F)F)cc4CN4CCOCC4)C(=O)O)cccc23)c1=O [Compound 225] | 
24 | < 10 nM | > 1000 nM | Cn1ccc(C(F)(F)F)c(-c2nccc3c(C[C@H](NC(=O)c4c(F)cc(N5CCOC[C@@H]5C(F)(F)F)cc4CN4CCC(F)(F)CC4)C(=O)O)cccc23)c1=O [Compound 226] | 
25 | < 10 nM | > 1000 nM | Cn1ccc(C(F)(F)F)c(-c2nccc3c(C[C@H](NC(=O)c4c(F)cc(N5CCOC[C@@H]5C(F)(F)F)cc4CN4CCOCC4)C(=O)O)cccc23)c1=O [Compound 245] | 
26 | < 10 nM | > 1000 nM | CN1CCN(Cc2cc(N3CCOC[C@@H]3C(F)(F)F)cc(F)c2C(=O)N[C@@H](Cc2cccc3c(-c4c(C(F)(F)F)ccn(C)c4=O)nccc23)C(=O)O)CC1 [Compound 248] | 
27 | < 10 nM | > 1000 nM | Cn1ccc(C(F)(F)F)c(-c2nccc3c(C[C@H](NC(=O)c4c(F)cc(N5CCOC[C@@H]5C5CC5)cc4F)C(=O)O)cccc23)c1=O [Compound 251] | 
28 | < 10 nM | > 1000 nM | Cn1ccc(C(F)(F)F)c(-c2nccc3c(C[C@H](NC(=O)c4c(F)cc(N(CC(F)(F)F)CC(F)(F)F)cc4CN4CCCC4)C(=O)O)cccc23)c1=O [Compound 252] | 
